Measurements published in patent US20160129021A1, “STERILIZATION METHOD” (UNIVERSITY OF PITTSBURGH - OF THE COMMONWEALTH SYSTEM OF …, priority 2013, published 2016).

Tests used:
[1] = system: spermatogenesis in testes of adult mice; assay: One injection into the testes of adult mice, sperm production; format: in vivo, mouse
GS cells [2] = assay: Detachment of GS cells from feeder cells; format: cell-based, mouse; settings: 50 μM, 5 days, vs vehicle
Experimental: (§1) FIG. 7A-F. Inhibition of SHP2 blocks GDNF and FGF signaling causes SSCs to detach from their niche decreases the number of SSCs in culture and disrupts spermatogenesis in vivo. […] Western blot analysis of p-ERK and ERK levels after the treatments is shown. […] The percentage of cells detached from feeder cells was determined (n=3, *=p<0.05). C) The epididymis of control and GCSHP2KO mice were stained with periodic acid Schiffs-hematoxylin. Immature germ cells in GCSHP2KO epididymis are identified with arrows. D) GS cells treated with vehicle or NSC (50 μM) as in B were isolated from feeder cells, dispersed and counted. E) Clumps of GS cells (white arrows) and feeder cells (yellow arrows) treated as in D were assayed for live (green) and dead (red) cells.
(§2) Preparation of GS cell cultures from 6-day-old DBA/2 mice was performed as described previously (Oatley and Brinster, 2006). Briefly, a testicular cell suspension was isolated by enzymatic digestion with DNase and trypsin and filtered through a 40 uM mesh to remove cell clumps. Germ cells were then enriched from these suspensions through a 30% percoll gradient. The germ cell suspensions were subjected to magnetic activated cell sorting (MACS) to select Thy1+ cells to enrich for SSCs. […]

GS cells [3] = assay: GS cell number after isolation from feeder cells, dispersed and counted; format: cell-based, mouse; settings: 50 μM, 5 day treatment, vs vehicle
Experimental: as §1
All immunostained cells and tubules from an entire testis section were counted and the number of stained cells per tubule was determined. GS cell viability was determined using the LIVE/DEAD Viability Assay kit for mammalian cells (Life Technologies)
as §2, with “gradient.” for “gradient. The germ cell suspensions were subjected to magnetic activated cell sorting (MACS) to select Thy1+ cells to enrich for SSCs.”

[4] = system: FGF and GDNF-mediated phosphorylation of ERK; assay: FGF/GDNF-stimulated ERK phosphorylation in GS cell cultures (western blot); format: cell-based, mouse; settings: FGF 20 ng/ml or GDNF 20 ng/ml, pretreatment with 50 μM
Experimental: as §1
Isolation of THY1+ germ cells from 6-day-old DBA/2 mice was performed as described previously to produce GS cell cultures (Oatley and Brinster, 2006) (more details in Supplemental Experimental Procedures). […] SSCs were detached from feeders and FGF or GDNF were added for 10 min. Detached SSCs were then pelleted (600×g, 7 min) and the pellets were lysed in Laemmli sample buffer.
WCE boiled in Laemmli sample buffer were fractionated by 10% SDS-PAGE and transferred to Immobilon-P, PVDF membranes 90 (Millipore Corp., Bedford, Mass.). […]

spleen tissue = assay: Spleen tissue after injection into testes; format: in vivo, mouse; settings: same animal as FIG. 11 (10 mg/kg into testes), 15 days after injection
[5] = system: spermatogenesis in adult mice; assay: ip injection into adult mice, testis sections stained with PAS-H; format: in vivo, mouse; settings: 15 days later
Experimental: as §1, with “cells. […] Furthermore, the populations of spermatocytes and spermatids were reduced.” for “cells.”

[6] = 5 mg/kg ip daily for 3 or 7 days

## O=S(=O)(O)c1ccc2cc(/N=N/c3cc(S(=O)(=O)O)c4cccnc4c3O)ccc2c1 [NSC-87877, 8-Hydroxy-7-[(6-sulfo-2-naphthyl)azo]-5-quinolinesulfonic acid]
[1]; one injection of 10 mg/kg into the testes, adult mice, 70 days
  sperm production, long term: loss of sperm production in some regions of the testes
[1]; one injection of 40 mg/kg into the testes, adult mice, 15 days later
  spermatogenesis (sperm production): sufficient to disrupt spermatogenesis
[1]; single dose of 10 mg/kg or 40 mg/kg, mouse
  fertility: effective in decreasing fertility
GS cells [2]
  increase in the number of GS cells detached from the feeder cells: 3 fold
GS cells [3]
  reduction of the number of GS cells: 22%
[4]
  FGF and GDNF-mediated phosphorylation (activation) of ERK: decreased FGF and GDNF mediated activation of ERK
[4]; listed as NSC-878777
  FGF and GDNF-mediated phosphorylation (activation) of ERK: inhibited the FGF and GDNF-mediated phosphorylation of ERK
Spleen tissue
  damage of spleen tissue: not damaged
[5]; [6]
  further disruption of spermatogenesis (elongated spermatids): mis-localization and mis-orientation of elongated spermatids
  populations of spermatocytes and spermatids: reduced
  spermatogonia in tubules at the periphery of the testes: absence of spermatogonia
[5]; 5 mg/kg ip daily for 7 days
  germ cells in some tubule cross sections: nearly all germ cells were absent
